US7312322B1, “Genetic sequences encoding steroid and juvenile hormone receptor polypeptides and insecticidal modalities therefor” (priority 1998, dated 2007)

Legend:
[1] = target: T1, EcR polypeptide of the L. cuprina ecdysone receptor (Lucilia cuprina, UniProt O18531); test: CHO cell co-transfection CAT reporter assay, pSGLcEcR; type: cell-based; conditions: CHO cells, 48 h after transfection, average of three experiments (FIG. 1)
T1 construct: Plasmid pF3 thus contains the complete open reading frame of the cDNA encoding the EcR polypeptide of the L. cuprina ecdysone receptor; expressed in transfected cells; host or cells: CHO cells
T1 sequence (O18531 1-757): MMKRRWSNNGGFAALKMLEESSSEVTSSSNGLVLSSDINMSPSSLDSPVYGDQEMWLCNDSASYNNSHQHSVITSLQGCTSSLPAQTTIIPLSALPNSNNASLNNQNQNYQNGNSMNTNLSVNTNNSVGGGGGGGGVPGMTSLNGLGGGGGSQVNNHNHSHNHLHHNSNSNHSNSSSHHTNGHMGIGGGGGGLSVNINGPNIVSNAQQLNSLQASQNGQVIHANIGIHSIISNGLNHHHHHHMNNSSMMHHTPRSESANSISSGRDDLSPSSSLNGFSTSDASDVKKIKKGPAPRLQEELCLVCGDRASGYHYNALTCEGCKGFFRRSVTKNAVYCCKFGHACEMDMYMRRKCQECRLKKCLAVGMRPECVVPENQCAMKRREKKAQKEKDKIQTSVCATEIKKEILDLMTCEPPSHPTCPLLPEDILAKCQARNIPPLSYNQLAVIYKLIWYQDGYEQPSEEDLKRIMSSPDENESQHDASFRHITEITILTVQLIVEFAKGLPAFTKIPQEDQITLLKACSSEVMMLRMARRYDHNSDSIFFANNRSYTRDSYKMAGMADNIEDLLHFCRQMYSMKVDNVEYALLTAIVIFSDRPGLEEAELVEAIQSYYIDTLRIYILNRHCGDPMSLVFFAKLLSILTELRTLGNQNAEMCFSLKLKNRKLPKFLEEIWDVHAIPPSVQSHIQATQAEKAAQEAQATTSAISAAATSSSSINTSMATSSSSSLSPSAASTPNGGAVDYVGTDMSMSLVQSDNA
Description: CHO cells were co-transfected with a mixture comprising the following DNAs, lysed and assayed for CAT and β-galactosidase enzyme activity, as described in the preceding Examples: • (1) one of the expression plasmids designated pSGDmEcR, or pSGLcEcR, or the parental expression plasmid pSG5 as a negative control, at a concentration of 1 μg/ml; and • (2) the CAT reporter plasmid p(EcRE)5CAT at a concentration of 1 μg/ml; and • (3) an independent LacZ reporter plasmid, pPGKLacZ, at a concentration of 1 μg/ml, included as a control to monitor transfection efficiency.
CAT reporter gene expression was induced with 10 μM or 50 μM Muristerone A. In control samples, cells received only the carrier ethanol in place of Muristerone A.
ELISA was used to quantify the synthesis of CAT and β-galactosidase enzymes, in extracts of cells forty eight hours after transfection. Account was taken of the variation between experiments, by normalizing the level of CAT enzyme to the level of β-galactosidase enzyme present in the same extract. Fold induction represents the normalized values for CAT gene expression in cells transfected with pSGDmEcR, pSGLcEcR or pSG5 in the presence of hormone divided by the normalized values for CAT gene expression in cells transfected with the same plasmid but in the absence of hormone. […]

[2] = target: T2, chimeric EcR polypeptide encoded by plasmid pSGLD (UniProt O18531+P34021, A395P/D402E/DEL360-378/E403D/F552Y/I397C/I665A/INS379CATEI/K578E/L663I/M356I/Q393S/Q448S/Q580E/R443K/S415P/S515N/S605P/T357Q/T417S/T456H/V458A/Y611F); test: CHO cell co-transfection CAT reporter assay, chimeric EcR plasmid pSGLD; type: cell-based, D. melanogaster / L. cuprina; conditions: 10 μM and 50 μM Muristerone A, comparable to D. melanogaster base EcR polypeptide (FIG. 2)
T2 construct: expressed in transfected cells
T2 sequence (P34021+O18531 fused with the stated changes): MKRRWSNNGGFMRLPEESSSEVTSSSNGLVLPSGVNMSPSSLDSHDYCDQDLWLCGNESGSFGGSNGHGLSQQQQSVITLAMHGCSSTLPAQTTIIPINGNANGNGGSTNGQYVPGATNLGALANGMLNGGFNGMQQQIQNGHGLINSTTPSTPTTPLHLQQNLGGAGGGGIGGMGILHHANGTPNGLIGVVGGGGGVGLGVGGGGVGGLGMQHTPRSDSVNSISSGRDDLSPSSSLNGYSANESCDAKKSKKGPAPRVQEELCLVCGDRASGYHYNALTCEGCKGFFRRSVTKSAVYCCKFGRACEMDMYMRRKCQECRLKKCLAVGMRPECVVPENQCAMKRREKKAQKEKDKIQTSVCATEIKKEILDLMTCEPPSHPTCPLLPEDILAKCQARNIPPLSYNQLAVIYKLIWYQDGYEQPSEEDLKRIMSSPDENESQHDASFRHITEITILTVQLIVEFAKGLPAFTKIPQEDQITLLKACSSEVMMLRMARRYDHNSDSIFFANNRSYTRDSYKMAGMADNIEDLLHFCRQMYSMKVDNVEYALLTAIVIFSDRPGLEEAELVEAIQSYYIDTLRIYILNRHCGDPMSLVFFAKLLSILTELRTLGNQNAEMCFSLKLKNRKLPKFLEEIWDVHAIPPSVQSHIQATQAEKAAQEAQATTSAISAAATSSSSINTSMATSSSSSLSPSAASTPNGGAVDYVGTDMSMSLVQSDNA
Description: (§1) FIG. 2 is a copy of a graphical representation showing the activity of plasmid pSGLD and pSGDL, containing chimeric EcR polypeptide subunits of insect ecdysone receptors, produced as described in the Examples. Cotransfection assays were performed as described in the Examples using plasmids pSGLD and pSGDL and the CAT reporter plasmid p(EcRE)7-CAT (1 ug/ml) and an independent reporter, pPGKLacZ at 1 μg/ml each. CAT/b-Gal (%) refers to CAT reporter activity expressed as a percentage relative to β-galactosidase activity produced by the internal control reporter, pPGKLacZ.
(§2) In one exemplification of this embodiment, plasmids pSGLD and pSGDL are produced comprising coding regions derived from the EcR polypeptides of the D. melanogaster and L. cuprina ecdysone receptors. In plasmid pSGLD, the 5′-end of the open reading frame of the D. melanogaster sequence, encoding the N-terminal portion of the EcR polypeptide of the D. melanogaster ecdysone receptor to the end of the DNA-binding domain of said polypeptide, is fused to the 3′-end of the open reading frame of the L. cuprina sequence, encoding the C-terminal portion of the EcR polypeptide of the L. cuprina ecdysone receptor, from the D domain and hormone-binding domain to the carboxyl terminus. […]

[3] = target: T3, chimeric EcR polypeptide encoded by plasmid pSGDL (Drosophila melanogaster, UniProt P34021, A242T/A248V/C246S/D219E/E244D/N243S/R304H/S245A/S251I/S295N/V221A/V259L/Y240F); test: CHO cell co-transfection CAT reporter assay, chimeric EcR plasmid pSGDL; type: cell-based, L. cuprina / D. melanogaster; conditions: 10 μM and 50 μM Muristerone A, comparable to D. melanogaster base EcR polypeptide (FIG. 2)
T3 construct: expressed in transfected cells
T3 sequence (P34021 other isoform, or with tags, fused parts or gaps with the stated changes): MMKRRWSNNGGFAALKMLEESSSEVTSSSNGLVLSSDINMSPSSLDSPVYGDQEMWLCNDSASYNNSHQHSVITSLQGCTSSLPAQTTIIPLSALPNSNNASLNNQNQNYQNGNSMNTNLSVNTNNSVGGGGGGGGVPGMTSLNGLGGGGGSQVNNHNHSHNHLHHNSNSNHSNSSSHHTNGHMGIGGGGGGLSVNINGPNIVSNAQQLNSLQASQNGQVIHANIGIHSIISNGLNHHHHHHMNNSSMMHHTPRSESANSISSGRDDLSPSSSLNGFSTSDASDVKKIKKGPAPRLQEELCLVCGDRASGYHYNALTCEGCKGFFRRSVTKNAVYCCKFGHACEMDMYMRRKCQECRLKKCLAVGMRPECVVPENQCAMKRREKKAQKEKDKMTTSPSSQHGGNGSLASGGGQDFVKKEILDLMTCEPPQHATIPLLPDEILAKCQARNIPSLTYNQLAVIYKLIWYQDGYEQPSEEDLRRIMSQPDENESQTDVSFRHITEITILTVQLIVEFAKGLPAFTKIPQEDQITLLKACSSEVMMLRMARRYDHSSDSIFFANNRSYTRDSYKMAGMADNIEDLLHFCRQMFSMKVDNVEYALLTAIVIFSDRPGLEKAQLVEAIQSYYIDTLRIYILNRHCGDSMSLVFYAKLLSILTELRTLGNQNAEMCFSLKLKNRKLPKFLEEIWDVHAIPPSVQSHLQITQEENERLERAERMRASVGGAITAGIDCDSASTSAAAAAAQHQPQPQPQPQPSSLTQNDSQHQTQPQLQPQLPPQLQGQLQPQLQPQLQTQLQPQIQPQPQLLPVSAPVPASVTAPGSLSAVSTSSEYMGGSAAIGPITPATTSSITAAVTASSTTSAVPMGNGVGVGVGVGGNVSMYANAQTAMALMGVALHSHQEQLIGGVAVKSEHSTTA
Description: as §1, §2

[4] = target: T4, linker and ligand-binding regions of the D. melanogaster EcR polypeptide and partner protein (USP polypeptide) (Drosophila melanogaster, UniProt P34021); test: [3H]ponasterone A binding assay in cells infected by recombinant baculovirus (modified method of Yund et al); conditions: compared to the naturally-occurring ecdysone holoreceptor in L. cuprina embryos; no specific binding with control virus
T4 construct: made in house; host or cells: recombinant baculovirus in insect Sf21 and Sf9 cells
T4 sequence (P34021 419-654 limits assumed): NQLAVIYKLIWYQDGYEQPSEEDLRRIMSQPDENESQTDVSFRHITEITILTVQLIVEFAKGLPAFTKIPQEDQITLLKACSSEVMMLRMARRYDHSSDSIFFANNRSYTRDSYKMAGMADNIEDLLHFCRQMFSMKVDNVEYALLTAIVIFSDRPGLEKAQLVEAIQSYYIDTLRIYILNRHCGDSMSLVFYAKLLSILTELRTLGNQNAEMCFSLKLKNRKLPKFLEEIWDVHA
T4 sequence (P20153 239-498 partner limits assumed): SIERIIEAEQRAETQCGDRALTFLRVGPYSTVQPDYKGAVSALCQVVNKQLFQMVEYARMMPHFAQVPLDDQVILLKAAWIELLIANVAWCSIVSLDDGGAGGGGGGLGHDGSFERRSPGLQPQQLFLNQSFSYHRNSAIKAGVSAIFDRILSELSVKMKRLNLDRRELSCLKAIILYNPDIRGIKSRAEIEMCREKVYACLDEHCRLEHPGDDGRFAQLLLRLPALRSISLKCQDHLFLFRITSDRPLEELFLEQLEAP
Text: The segment of pDmEcR.USP.DUAL which encodes the tagged linker and ligand-binding regions of the EcR polypeptide and partner protein (USP polypeptide) sequences, placed operably under the control of polyhedrin and p10 promoters, respectively, was recombined into a baculovirus genome, by employing the Tn7 transposition system (Luckow et al, (1993). The polypeptide products were then co-expressed in insect Sf21 and Sf9 cells, where they associated into a functional complex.
The correctly-folded and associated complex formed by the truncated Ecr polypeptide and truncated EcR partner protein (USP polypeptide), is used for X-ray and NMR structural analysis and for high-throughput screens.

## CC(C)CC[C@@H](O)[C@](C)(O)[C@H]1CC[C@@]2(O)C3=CC(=O)[C@]4(O)C[C@@H](O)[C@@H](O)C[C@]4(C)[C@H]3[C@H](O)C[C@]12C [Muristerone A]
[1]; 50 μM steroid
  CAT induction (fold induction): about 30 fold
[1]; 10 μm steroid
  CAT induction (fold induction): ~15 fold
[2]
  bioactivity in the CAT assay: Significant bioactivity
[3]
  bioactivity in the CAT assay: Significant bioactivity

## [^3H]ponasterone A
[4]
  binding of labelled ligand in cells infected by the recombinant baculovirus: highly-significant increase in the binding
